Data as given in the supplement of paper PMC10307832.

Columns and labels:
Experiment in all cases: relative viability (nuclei count vs DMSO), 5 days (fraction); higher = more cells survive
BEN = system: BEN
Summary of the method: (§1)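 Medians of duplicate plates are given as relative viability. That measure is the nuclei count in treated wells divided by the count in vehicle wells. Counts were taken on 4× images of lung cancer cell lines in 1536-well plates, 5 days after pin-tool dosing the day after seeding with one drug alone or a fixed anchor-drug dose plus five library-drug doses (not always all listed) in √10 steps.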

ChaGo-K-1 = system: ChaGo-K-1
Summary of the method: as §1

EKVX = system: EKVX
Summary of the method: as §1

HCC-827 = system: HCC-827
Summary of the method: as §1

HOP-62 = system: HOP-62
Summary of the method: as §1

LCLC-103H = system: LCLC-103H
Summary of the method: as §1

LK-2 = system: LK-2
Summary of the method: as §1

LOU-NH91 = system: LOU-NH91
Summary of the method: as §1

LXF-289 = system: LXF-289
Summary of the method: as §1

NCI-H1355 = system: NCI-H1355
Summary of the method: as §1

NCI-H1437 = system: NCI-H1437
Summary of the method: as §1

NCI-H1666 = system: NCI-H1666
Summary of the method: as §1

NCI-H1944 = system: NCI-H1944
Summary of the method: as §1

NCI-H1993 = system: NCI-H1993
Summary of the method: as §1

NCI-H2126 = system: NCI-H2126
Summary of the method: as §1

NCI-H2170 = system: NCI-H2170
Summary of the method: as §1

NCI-H441 = system: NCI-H441
Summary of the method: as §1

NCI-H647 = system: NCI-H647
Summary of the method: as §1

NCI-H661 = system: NCI-H661
Summary of the method: as §1

NCI-H727 = system: NCI-H727
Summary of the method: as §1

PC-14 = system: PC-14
Summary of the method: as §1

RERF-LC-KJ = system: RERF-LC-KJ
Summary of the method: as §1

SK-MES-1 = system: SK-MES-1
Summary of the method: as §1

Q: `Cc1csc(=NC2CCCCC2)n1/N=C/c1ccc(O)c(O)c1O` [MIM1] + O=C(CCCCCCC(=O)Nc1ccccc1)NO [Vorinostat] (partner 1 µM) was tested. Which relative viability (BEN; first compound 0.2 µM) did it give?
A: 0.587

Q: What about the relative viability (BEN; first compound 0.6325 µM) of the same compound?
A: 0.546

Q: What about the relative viability (BEN; first compound 2 µM) of the same compound?
A: 0.562

Q: And the relative viability (BEN; first compound 6.325 µM)?
A: 0.511

Q: And the relative viability (BEN; first compound 20 µM)?
A: 0.394

Q: What about the relative viability (ChaGo-K-1; first compound 0.2 µM) of the same compound?
A: 0.714

Q: What about the relative viability (ChaGo-K-1; first compound 0.6325 µM) of the same compound?
A: 0.449

Q: What about the relative viability (ChaGo-K-1; first compound 2 µM) of the same compound?
A: 0.699

Q: What about the relative viability (ChaGo-K-1; first compound 6.325 µM) of the same compound?
A: 0.543

Q: And the relative viability (ChaGo-K-1; first compound 20 µM)?
A: 0.157

Q: And the relative viability (EKVX; first compound 0.2 µM)?
A: 0.609

Q: And the relative viability (EKVX; first compound 2 µM)?
A: 0.707

Q: What about the relative viability (EKVX; first compound 6.325 µM) of the same compound?
A: 0.473

Q: And the relative viability (EKVX; first compound 20 µM)?
A: 0.265

Q: What about the relative viability (HCC-827; first compound 0.2 µM) of the same compound?
A: 0.871

Q: What about the relative viability (HCC-827; first compound 0.6325 µM) of the same compound?
A: 0.731

Q: And the relative viability (HCC-827; first compound 2 µM)?
A: 0.777

Q: What about the relative viability (HCC-827; first compound 6.325 µM) of the same compound?
A: 0.231

Q: And the relative viability (HCC-827; first compound 20 µM)?
A: 0.349

Q: And the relative viability (HOP-62; first compound 0.2 µM)?
A: 0.655

Q: And the relative viability (HOP-62; first compound 0.6325 µM)?
A: 0.469

Q: And the relative viability (HOP-62; first compound 2 µM)?
A: 0.541

Q: What about the relative viability (HOP-62; first compound 6.325 µM) of the same compound?
A: 0.379

Q: And the relative viability (HOP-62; first compound 20 µM)?
A: 0.0827

Q: What about the relative viability (LCLC-103H; first compound 0.2 µM) of the same compound?
A: 0.731

Q: And the relative viability (LCLC-103H; first compound 0.6325 µM)?
A: 0.39

Q: What about the relative viability (LCLC-103H; first compound 2 µM) of the same compound?
A: 0.768

Q: And the relative viability (LCLC-103H; first compound 6.325 µM)?
A: 0.48

Q: What about the relative viability (LCLC-103H; first compound 20 µM) of the same compound?
A: 0.342

Q: And the relative viability (LK-2; first compound 0.2 µM)?
A: 0.363

Q: And the relative viability (LK-2; first compound 0.6325 µM)?
A: 0.272

Q: And the relative viability (LK-2; first compound 2 µM)?
A: 0.304

Q: And the relative viability (LK-2; first compound 6.325 µM)?
A: 0.562

Q: And the relative viability (LK-2; first compound 20 µM)?
A: 0.203

Q: What about the relative viability (LOU-NH91; first compound 0.2 µM) of the same compound?
A: 0.672

Q: And the relative viability (LOU-NH91; first compound 0.6325 µM)?
A: 0.822

Q: What about the relative viability (LOU-NH91; first compound 2 µM) of the same compound?
A: 0.699

Q: What about the relative viability (LOU-NH91; first compound 6.325 µM) of the same compound?
A: 0.359

Q: And the relative viability (LOU-NH91; first compound 20 µM)?
A: 0.298

Q: What about the relative viability (LXF-289; first compound 0.2 µM) of the same compound?
A: 0.777

Q: And the relative viability (LXF-289; first compound 0.6325 µM)?
A: 0.462

Q: What about the relative viability (LXF-289; first compound 2 µM) of the same compound?
A: 0.665

Q: And the relative viability (LXF-289; first compound 6.325 µM)?
A: 0.499

Q: And the relative viability (LXF-289; first compound 20 µM)?
A: 0.304

Q: And the relative viability (NCI-H1355; first compound 0.2 µM)?
A: 0.673

Q: And the relative viability (NCI-H1355; first compound 0.6325 µM)?
A: 0.604

Q: What about the relative viability (NCI-H1355; first compound 2 µM) of the same compound?
A: 0.693

Q: What about the relative viability (NCI-H1355; first compound 6.325 µM) of the same compound?
A: 0.544

Q: What about the relative viability (NCI-H1355; first compound 20 µM) of the same compound?
A: 0.487

Q: And the relative viability (NCI-H1437; first compound 0.2 µM)?
A: 0.712

Q: What about the relative viability (NCI-H1437; first compound 0.6325 µM) of the same compound?
A: 0.843

Q: What about the relative viability (NCI-H1437; first compound 2 µM) of the same compound?
A: 0.833

Q: And the relative viability (NCI-H1437; first compound 6.325 µM)?
A: 0.313

Q: What about the relative viability (NCI-H1437; first compound 20 µM) of the same compound?
A: 0.197

Q: What about the relative viability (NCI-H1666; first compound 0.2 µM) of the same compound?
A: 1.01

Q: And the relative viability (NCI-H1666; first compound 0.6325 µM)?
A: 0.922

Q: What about the relative viability (NCI-H1666; first compound 2 µM) of the same compound?
A: 1.08

Q: And the relative viability (NCI-H1666; first compound 6.325 µM)?
A: 0.769

Q: And the relative viability (NCI-H1666; first compound 20 µM)?
A: 0.477

Q: What about the relative viability (NCI-H1944; first compound 0.2 µM) of the same compound?
A: 0.548

Q: And the relative viability (NCI-H1944; first compound 0.6325 µM)?
A: 0.499

Q: What about the relative viability (NCI-H1944; first compound 2 µM) of the same compound?
A: 0.39

Q: What about the relative viability (NCI-H1944; first compound 6.325 µM) of the same compound?
A: 0.428

Q: And the relative viability (NCI-H1944; first compound 20 µM)?
A: 0.228

Q: What about the relative viability (NCI-H1993; first compound 0.2 µM) of the same compound?
A: 0.851

Q: What about the relative viability (NCI-H1993; first compound 0.6325 µM) of the same compound?
A: 0.601

Q: And the relative viability (NCI-H1993; first compound 2 µM)?
A: 0.601

Q: What about the relative viability (NCI-H1993; first compound 6.325 µM) of the same compound?
A: 0.348

Q: And the relative viability (NCI-H1993; first compound 20 µM)?
A: 0.413

Q: What about the relative viability (NCI-H2126; first compound 0.2 µM) of the same compound?
A: 0.745

Q: And the relative viability (NCI-H2126; first compound 0.6325 µM)?
A: 0.454

Q: And the relative viability (NCI-H2126; first compound 2 µM)?
A: 0.838

Q: And the relative viability (NCI-H2126; first compound 6.325 µM)?
A: 0.711

Q: And the relative viability (NCI-H2126; first compound 20 µM)?
A: 0.404

Q: And the relative viability (NCI-H2170; first compound 0.2 µM)?
A: 0.786

Q: What about the relative viability (NCI-H2170; first compound 0.6325 µM) of the same compound?
A: 0.696

Q: And the relative viability (NCI-H2170; first compound 2 µM)?
A: 0.748

Q: And the relative viability (NCI-H2170; first compound 6.325 µM)?
A: 0.479

Q: What about the relative viability (NCI-H2170; first compound 20 µM) of the same compound?
A: 0.138

Q: And the relative viability (NCI-H441; first compound 0.2 µM)?
A: 0.748

Q: What about the relative viability (NCI-H441; first compound 0.6325 µM) of the same compound?
A: 0.798

Q: And the relative viability (NCI-H441; first compound 2 µM)?
A: 0.974

Q: And the relative viability (NCI-H441; first compound 6.325 µM)?
A: 0.212

Q: What about the relative viability (NCI-H441; first compound 20 µM) of the same compound?
A: 0.191

Q: What about the relative viability (NCI-H647; first compound 0.2 µM) of the same compound?
A: 0.655

Q: And the relative viability (NCI-H647; first compound 0.6325 µM)?
A: 0.61

Q: What about the relative viability (NCI-H647; first compound 2 µM) of the same compound?
A: 0.614

Q: And the relative viability (NCI-H647; first compound 6.325 µM)?
A: 0.454

Q: And the relative viability (NCI-H647; first compound 20 µM)?
A: 0.104

Q: And the relative viability (NCI-H661; first compound 0.2 µM)?
A: 0.764

Q: What about the relative viability (NCI-H661; first compound 0.6325 µM) of the same compound?
A: 0.748

Q: What about the relative viability (NCI-H661; first compound 2 µM) of the same compound?
A: 0.742

Q: What about the relative viability (NCI-H661; first compound 6.325 µM) of the same compound?
A: 0.406

Q: And the relative viability (NCI-H661; first compound 20 µM)?
A: 0.292

Q: And the relative viability (NCI-H727; first compound 0.2 µM)?
A: 1.29

Q: And the relative viability (NCI-H727; first compound 0.6325 µM)?
A: 1.16

Q: And the relative viability (NCI-H727; first compound 2 µM)?
A: 1.15

Q: What about the relative viability (NCI-H727; first compound 6.325 µM) of the same compound?
A: 1.06

Q: What about the relative viability (NCI-H727; first compound 20 µM) of the same compound?
A: 0.607

Q: And the relative viability (PC-14; first compound 0.2 µM)?
A: 0.746

Q: And the relative viability (PC-14; first compound 0.6325 µM)?
A: 0.616

Q: And the relative viability (PC-14; first compound 2 µM)?
A: 0.478

Q: And the relative viability (PC-14; first compound 6.325 µM)?
A: 0.456

Q: And the relative viability (PC-14; first compound 20 µM)?
A: 0.118

Q: What about the relative viability (RERF-LC-KJ; first compound 0.2 µM) of the same compound?
A: 0.616

Q: What about the relative viability (RERF-LC-KJ; first compound 0.6325 µM) of the same compound?
A: 0.558

Q: What about the relative viability (RERF-LC-KJ; first compound 2 µM) of the same compound?
A: 0.507

Q: What about the relative viability (RERF-LC-KJ; first compound 6.325 µM) of the same compound?
A: 0.317

Q: What about the relative viability (RERF-LC-KJ; first compound 20 µM) of the same compound?
A: 0.225

Q: And the relative viability (SK-MES-1; first compound 0.2 µM)?
A: 1.02

Q: And the relative viability (SK-MES-1; first compound 0.6325 µM)?
A: 0.953

Q: What about the relative viability (SK-MES-1; first compound 2 µM) of the same compound?
A: 0.959

Q: What about the relative viability (SK-MES-1; first compound 6.325 µM) of the same compound?
A: 0.594

Q: And the relative viability (SK-MES-1; first compound 20 µM)?
A: 0.2
